Results from patent US5981521A, “Tetrahydroisoquinoline derivatives as LHRH antagonists” (Abbott Laboratories, priority 1998, dated 1999).
Counter-ions that a name gives are not always drawn.

Biological target: T1, LHRH rat pituitary receptor (Rattus norvegicus, UniProt P30969)
T1 construct: from tissue; host or cells: rat pituitary
T1 sequence (P30969 1-327): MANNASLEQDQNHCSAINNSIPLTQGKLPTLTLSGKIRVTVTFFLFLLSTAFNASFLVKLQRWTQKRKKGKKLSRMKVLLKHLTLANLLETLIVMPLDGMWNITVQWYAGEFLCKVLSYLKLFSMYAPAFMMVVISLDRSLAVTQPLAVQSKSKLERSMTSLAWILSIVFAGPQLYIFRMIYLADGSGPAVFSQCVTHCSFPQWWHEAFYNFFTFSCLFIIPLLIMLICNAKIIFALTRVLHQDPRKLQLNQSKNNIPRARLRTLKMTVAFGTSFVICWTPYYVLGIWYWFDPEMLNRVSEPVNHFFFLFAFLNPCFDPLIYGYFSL
Assay: LHRH rat pituitary receptor binding
Method: Representative compounds of the present invention were evaluated in vitro for potency against for LHRH rat pituitary receptor binding [pK, ]. Methods for the assay procedures are 10 described in […] al. J Med. Chem., 32: 2340-2344 (1989). Values of pK, are the negative logarithms of the equilibrium dissociation constant of the particular antagonist test compound for the receptor binding. […] Leuprolide LHRH agonist, disclosed and claimed in U.S. Pat. No. 4,005, 063, has the structure 5-oxo-[…].

[1] = Table 2: compounds of formula (VI), by isoquinolinyl moiety R
[2] = Table 1: compounds of formula (V), by n and R1
[3] = Table 3: compounds of formula (VII), by substituent R'

CC1c2cc(O)c(O)cc2CCN1CCCC(CCCNC(=O)CCc1ccc(F)cc1)(c1ccccc1)c1ccccc1 (centres unmarked) [Example 46, 7-[N-3-(4-Fluorophenyl)propionyl]-1-UN-(1,2,3,4-tetrahydro-1-methyl-6,7-dihydroxyisoguinolinyl)1-4.4-diphenylheptane hydrochloride]
Ki [1]: 15.5 nM

COc1cc2c(cc1OC)C(CNC(C)C)N(CCCC(CCCNC(=O)CCc1ccc(F)cc1)(c1ccccc1)c1ccccc1)CC2 (centres unmarked) [Example 23, 7-[N-3-(4-Fluorophenyl)propionyll-1-[N-(1,2,3,4-tetrahydro-1-(N-isopropylaminomethyl)-6,7-dimethoxyisoguinolinyl)]-4,4-diphenylheptanedihydrochloride]
pKI [2]: 8.91

COc1cc2c(cc1OC)C(CCCCNCC(C)C)N(CCCC(CCCNC(=O)CCc1ccc(F)cc1)(c1ccccc1)c1ccccc1)CC2 (centres unmarked) [Example 29, 7-[N-3-(4-Fluorophenyl)propionyl]-1-[N-(1,2,3,4-tetrahydro-1-[4-(N-isobutylamino)butyll-6,7-dimethoxyisoguinolinyl)1-4.4-diphenylheptanedihydrochloride]
pKI [2]: 8.60

COc1cc2c(cc1OC)C(C1CCC(CN)CC1)N(CCCC(CCCNC(=O)CCc1ccc(F)cc1)(c1ccccc1)c1ccccc1)CC2 (centres unmarked) [Example 37, 7-[N-3-(4-Fluorophenyl)propionyl]-1-[N-(1,2,3,4-tetrahydro-1-(4-aminomethylcyclohexyl)-6,7-dimethoxyisoquinolinyl)1-4.4-diphenylheptanedihydrochloride]
Ki [2]: 3.98 nM

CC1c2cc3c(cc2CCN1CCCC(CCCNC(=O)CCc1ccc(F)cc1)(c1ccccc1)c1ccccc1)OCO3 (centres unmarked) [Example 48, 7-[N-3-(4-Fluorophenyl)propionyl]-1-[N-(1,2,3,4-tetrahydro-1-methyl-6,7-dioxalane-isoquinolinyl)1-4,4-diphenylheptane hydrochloride]
Ki [1]: 10 nM

COc1ccc(CC2c3cc(OC)c(OC)cc3CCN2CCCC(CCCNC(=O)CCc2ccc(F)cc2)(c2ccccc2)c2ccccc2)cc1 (centres unmarked) [Example 19, 7-[N-3-(4-Fluorophenyl)propionyl]amino-1-[N-(1,2,3,4-tetrahydro-1-(4-methoxybenzyl)-6,7-dimethoxyisoguinolinyl)1-4.4-diphenylheptane hydrochloride]
Ki [2]: 5.89 nM

COc1cc2c(cc1OC)C(C)N(CCCC(CCCNC(=O)CCc1ccc(F)cc1)(c1ccccc1)c1ccccc1)CCC2 (centres unmarked) [Example 69, 7-[N-3-(4-Fluorophenyl)propionyl]-1-[N-(2,3,4,5-tetrahydro-1-methyl-7.8-dimethoxy-I H-2-benzazepinyl)1-4.4-diphenylheptane hydrochloride]
Ki [1]: 12.6 nM

COc1cc2c(cc1OC)C(C)N(CCCC(CCCNC(=O)CCc1ccccc1)(c1ccccc1)c1ccccc1)CC2 (centres unmarked) [Example 72]
Ki [3]: 3.16 nM

COc1cc2c(cc1Br)C(C)N(CCCC(CCCNC(=O)CCc1ccc(F)cc1)(c1ccccc1)c1ccccc1)CC2 (centres unmarked) [Example 61, 7-[N-3-(4-Fluorophenyl)propionyl]-1-[N-(1,2,3,4-tetrahydro-1-methyl-6-methoxy-7-bromoisoguinolinyl)1-4.4-diphenylheptane hydrochloride]
Ki [1]: 3.72 nM

COc1cc2c(cc1OC)C(CCCCN(CC1CC1)CC1CC1)N(CCCC(CCCNC(=O)CCc1ccc(F)cc1)(c1ccccc1)c1ccccc1)CC2 (centres unmarked) [Example 32, 7-[N-3-(4-Fluorophenyl)pronionyl]amino-1-N-(1,2,3,4-tetrahydro-1-(4-N. N-dicycloprovylmethylamino)butyl-6,7-dimethoxyisoguinolinyl)1-4,4-diphenylheptane dihydrochloride]
Ki [2]: 0.631 nM

CC(=O)Nc1ccc2c(c1)C(C)N(CCCC(CCCNC(=O)CCc1ccc(F)cc1)(c1ccccc1)c1ccccc1)CC2 (stereo not drawn) [Example 55, 7-[N-3-(4-Fluorophenyl)propionyl]-1-[N-(1,2,3,4-tetrahydro-l-methyl-7-acetylamino-isoquinolinyl)1-4.4-diphenylheptane hydrochloride]
Ki [1]: 8.71 nM

CC1c2cc([N+](=O)[O-])ccc2CCN1CCCC(CCCNC(=O)CCc1ccc(F)cc1)(c1ccccc1)c1ccccc1 (stereo not drawn) [Example 54, 7-[N-3-(4-Fluorophenyl)Propionyl]-1-[N-(1,2,3,4-tetrahydro-1-methyl-7-nitro-isoquinolinyl)l-4,4-diphenylheiptane hydrochloride]
Ki [1]: 4.37 nM

7-[N-3-(4-Fluorophenyl)propionyl]-1-[N-(1,2,3,4-tetrahydro-1-(4-N-phthalimidomethyl)cyclohexyl-6,7-dimethoxyisoguinolinyl)1-4.4-diphenylheptane hydrochloride [Example 36]
pKI [2]: 8.27

COc1cc2c(cc1OC)C(COCc1ccccc1)N(CCCC(CCCNC(=O)CCc1ccc(F)cc1)(c1ccccc1)c1ccccc1)CC2 (centres unmarked) [Example 13, 7-[N-3-(4-Fluorophenyl)propionyl]amino-1-[N-(1,2,3,4-tetrahydro-1-benzyloxymethyl-6,7-dimethoxyisoguinolinyl)1-4.4-diphenylhelptane hydrochloride]
Ki [2]: 3.47 nM

COc1cc2c(cc1OC)C(CCCCN)N(CCCC(CCCNC(=O)CCc1ccc(F)cc1)(c1ccccc1)c1ccccc1)CC2 (centres unmarked) [Example 25, 7-[N-3-(4-Fluorophenyl)propional]-1-[N-(1,2,3,4-tetrahydro-1-(4-aminobutyl)-6,7-dimethoxyisoquinolinyl)]-4,4-diphenylhentane dihydrochloride]
Ki [2]: 0.186 nM

COc1cc2c(cc1OC)C(C1CCC1)N(CCCC(CCCNC(=O)CCc1ccc(F)cc1)(c1ccccc1)c1ccccc1)CC2 (centres unmarked) [Example 9, 7-[N-3-(4-Fluorophenyl)propionyl]amino-1-[N-(1,2,3,4-tetrahydro-1-cyclobutyl-6,7-dimethoxnisoguinolinyl)]1-4,4-diphenalhentane hydrochloride]
pKI [2]: 10.07

COc1cc2c(cc1OC)C(CN)N(CCCC(CCCNC(=O)CCc1ccc(F)cc1)(c1ccccc1)c1ccccc1)CC2 (centres unmarked) [Example 22, 7-[N-3-(4-Fluorophenyl)propionyl]amino-1-[N-(1,2.3,4-tetrahydro-1-aininomethyl-6,7-dimethoxyisoguinolinyl)1-4.4-diphenylheptanedihydrochloride]
pKI [2]: 9.24

COc1ccc(C2c3cc(OC)c(OC)cc3CCN2CCCC(CCCNC(=O)CCc2ccc(F)cc2)(c2ccccc2)c2ccccc2)cc1 (centres unmarked) [Example 14, 7-[N-3-(4-Fluorophenyl)propionyl]amino-1-[N-(1,2,3,4-tetrahydro-1-(4-methoxyphenyl)-6,7-dimethoxyisoguinolinyl)1-4.4-diihenylhentane hydrochloride]
pKI [2]: 8.14

COc1cc2c(cc1OC)C(C(C)C)N(CCCC(CCCNC(=O)CCc1ccc(F)cc1)(c1ccccc1)c1ccccc1)CC2 (centres unmarked) [Example 6, 7-[N-3-(4-Fluorophenylpropionyl]amino-1-[N-(1,2,3,4-tetrahydro-1-isopropyl-6.7-dimethoxyisoquinolinyl)]1-4.4-diphenylheptane hydrochloride]
Ki [2]: 1.58 nM

COc1cc2c(cc1Br)CCN(CCCC(CCCNC(=O)CCc1ccc(F)cc1)(c1ccccc1)c1ccccc1)C2C (centres unmarked) [Example 59, 7-[N-3-(4-Fluorophenyl)propionyl]-1-[N-(1,2,3,4-tetrahydro-1-methyl-6-bromo-7-methoxyisoguinolinyl)]-4,4-diphenylheptane hydrochloride]
Ki [1]: 1.91 nM

COc1cc2c(cc1OC)C(C)N(CCCC(CCCNC(=O)CCc1ccc(Cl)cc1)(c1ccccc1)c1ccccc1)CC2 (centres unmarked) [Example 79, 7-[N-3-(4-chlorophenol)propionyl]amino-1-[N-(I .2.3,4-tetrahydro-1-methyl-6,7-dimethoxyisoguinolinyl)1-4,4-diphenylheptane hydrochloride]
Ki [3]: 0.195 nM

COc1cc2c(cc1OC)C(Cc1ccccc1)N(CCCC(CCCNC(=O)CCc1ccc(F)cc1)(c1ccccc1)c1ccccc1)CC2 (centres unmarked) [Example 17, 7-[N-3-(4-Fluorophenyl)propionyl]amino-1-[N-(1,2,3,4-tetrahydro-1-benzyl-6,7-dimethoxyisoguinolinyl)1-4.4-diphenylheptane hydrochloride]
pKI [2]: 8.56

COc1cc2c(cc1OC)C(C)N(CCCC(CCCNC(=O)CCc1ccc(F)c(Cl)c1)(c1ccccc1)c1ccccc1)CC2 (centres unmarked) [Example 76]
Ki [3]: 3.98 nM

COCC1c2cc(OC)c(OC)cc2CCN1CCCC(CCCNC(=O)CCc1ccc(F)cc1)(c1ccccc1)c1ccccc1 (centres unmarked) [Example 12, 7-[N-3-(4-Fluorophenyl)propionyl]amino-1-[N-(1,2,3,4-tetrahydro-1-methoxymethyl-6,7-dimethoxyisoguinolinyl)]-4,4-diphenylhelptane hydrochloride]
Ki [2]: 8.32 nM

COc1cc2c(cc1OC)C(CCCCNC(C)c1ccccc1)N(CCCC(CCCNC(=O)CCc1ccc(F)cc1)(c1ccccc1)c1ccccc1)CC2 (stereo not drawn) [Example 31, 7-[N-3-(4-Fluorophenyl)prol)ionyl]amino-1-[N-(1,2,3,4-tetrahydro-1-(4-(N-alpha-methylbenzylamino)butyl-6,7-dimethoxyisoguinolinyl)]-4,4-diphenylheptane dihydrochloride]
Ki [2]: 3.98 nM

COc1cc2c(cc1OC)C(CCCCNC(=O)c1cccnc1)N(CCCC(CCCNC(=O)CCc1ccc(F)cc1)(c1ccccc1)c1ccccc1)CC2 (centres unmarked) [Example 35, 7-[N-3-(4-Fluorophenyl)propionyl]amino-1-[N-(1,2,3,4-tetrahydro-1-(4-N-nicotinylamino)-butyl-6,7-dimethoxyisoguinolinyll-4,4-diphenylheptane hydrochloride]
Ki [2]: 2.45 nM
